Read-outs that look alike come from different tables or passages of the source.
Assays:
NF-κB = assay: NF-kB assay in THP-1-Blue NF-κB cells (SEAP reporter); format: cell-based
Method: THP-1-Blue NF-κB cells (InvivoGen) carrying a stable integrated NF-κB-inducible secreted embryonic alkaline phosphatase (SEAP) reporter construct were plated at a concentration of 1×10^5 cells per well. The cells were stimulated with Pam3CSK4 (1 ng/mL) or hIL1B (Ing/mL). After 10-20 minutes, the cells were then treated with vehicle (DMSO) or serial dilutions of the test compounds (10 doses tested for each test compound, with a 1:10 dilution series starting at 1 μM or 3 μM) with a final volume of 200 μL for 24 hours at 37° C. After 24 hours, the cells were centrifuged and 20 IL supernatant was incubated with 180 μL QUANTI-Blue reagent at 37° C. for 30-60 minutes. The levels of NF-κB-induced was measured in a microplate reader at 620 nm.

FLT3 = biological target: T1, FLT3 (Homo sapiens, UniProt P36888); assay: RBC HotSpot Kinase Assay, FLT3; format: biochemical; set-up: purchased RBC (Reaction Biology) HotSpot assay; conditions: HotSpot functional assay, isolated kinase enzyme, 33P-ATP
T1 sequence (P36888 27-993): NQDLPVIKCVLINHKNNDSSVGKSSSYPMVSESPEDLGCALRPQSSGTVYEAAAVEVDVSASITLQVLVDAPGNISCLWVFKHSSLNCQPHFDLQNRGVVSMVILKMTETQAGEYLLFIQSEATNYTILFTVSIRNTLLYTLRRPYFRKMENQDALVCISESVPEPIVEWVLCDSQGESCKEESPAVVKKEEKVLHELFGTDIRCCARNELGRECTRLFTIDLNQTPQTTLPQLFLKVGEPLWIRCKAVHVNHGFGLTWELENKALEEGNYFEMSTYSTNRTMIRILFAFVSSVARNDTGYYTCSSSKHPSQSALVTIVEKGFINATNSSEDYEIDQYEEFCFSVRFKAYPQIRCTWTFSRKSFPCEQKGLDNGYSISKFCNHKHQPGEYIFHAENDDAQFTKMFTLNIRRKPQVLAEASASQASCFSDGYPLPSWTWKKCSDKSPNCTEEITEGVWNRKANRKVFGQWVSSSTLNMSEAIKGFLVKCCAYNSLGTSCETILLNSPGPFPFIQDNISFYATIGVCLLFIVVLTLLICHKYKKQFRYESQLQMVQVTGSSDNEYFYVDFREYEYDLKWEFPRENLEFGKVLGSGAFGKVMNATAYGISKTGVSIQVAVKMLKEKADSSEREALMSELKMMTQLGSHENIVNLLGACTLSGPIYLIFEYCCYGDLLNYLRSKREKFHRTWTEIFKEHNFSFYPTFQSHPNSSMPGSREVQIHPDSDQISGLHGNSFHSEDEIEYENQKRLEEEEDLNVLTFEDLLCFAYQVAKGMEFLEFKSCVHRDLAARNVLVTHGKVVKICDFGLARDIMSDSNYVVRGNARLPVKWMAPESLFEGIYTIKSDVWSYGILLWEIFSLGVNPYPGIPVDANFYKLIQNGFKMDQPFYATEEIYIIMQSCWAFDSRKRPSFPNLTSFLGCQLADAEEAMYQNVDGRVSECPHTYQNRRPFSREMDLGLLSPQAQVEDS
In short: (§1)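 Isolated kinases, possibly truncated or lacking regulatory receptor regions, were preincubated with compound for 20 min at room temp in 20 mM Hepes pH 7.5, 10 mM MgCl2, 1 mM EGTA, 2 mM DTT, 1% DMSO. Reactions were started with ^33P-ATP and run 2 h at room temperature; activity was read by P81 filter binding.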

IRAK4 = biological target: T2, IRAK4 (Homo sapiens, UniProt Q9NWZ3); assay: RBC HotSpot Kinase Assay, IRAK4; format: biochemical; set-up: purchased RBC (Reaction Biology) HotSpot assay; conditions: HotSpot functional assay, isolated kinase enzyme, 33P-ATP
T2 sequence (Q9NWZ3 1-460): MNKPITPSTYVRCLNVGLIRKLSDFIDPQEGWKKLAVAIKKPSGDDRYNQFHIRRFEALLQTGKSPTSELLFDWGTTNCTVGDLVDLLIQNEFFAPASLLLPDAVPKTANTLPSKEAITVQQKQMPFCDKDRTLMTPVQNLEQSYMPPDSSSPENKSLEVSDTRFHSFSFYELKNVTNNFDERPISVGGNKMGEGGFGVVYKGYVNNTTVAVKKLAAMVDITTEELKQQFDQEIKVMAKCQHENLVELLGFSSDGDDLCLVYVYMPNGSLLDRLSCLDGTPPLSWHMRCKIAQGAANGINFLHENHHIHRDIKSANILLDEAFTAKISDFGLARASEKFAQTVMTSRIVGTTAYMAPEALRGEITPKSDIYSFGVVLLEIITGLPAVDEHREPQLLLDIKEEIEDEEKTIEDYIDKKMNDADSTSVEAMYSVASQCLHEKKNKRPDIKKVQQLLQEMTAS
In short: as §1

IRAK1 = biological target: T3, IRAK1 (Homo sapiens, UniProt P51617); assay: RBC HotSpot Kinase Assay, IRAK1; format: biochemical; conditions: HotSpot functional assay, isolated kinase enzyme, 33P-ATP
T3 construct: purchased RBC (Reaction Biology) HotSpot assay
In short: as §1

MOLM14 D835Y cells = assay: MOLM14 D835Y cell viability assay (Cell Titer Glo); format: cell-based
Method: The cell line has activated FLT3 receptors which carry additional resistance mutations in the kinase domain (D835Y).
MOLM14 D835Y cells were grown in RPMI-1640 media supplemented with 20% fetal bovine serum (FBS). […] After cell addition, 23 nL of test compound were transferred into individual wells (22 doses tested for each test compound, with a 1:2 dilution series starting at 10 μM) via a 1536 pin-tool. Bortezomib (final concentration 2.3 μM) was used as a positive control for cell cytotoxicity.

[1] = THP-1-Blue NF-κB cells stimulated with Pam3CSK4, 24 hours, read-out: NF-κB Pam3SCK4 IC50
[2] = THP-1-Blue NF-κB cells stimulated with hIL1B, 24 hours, read-out: NF-κB IL1B IC50

T3 sequence (P51617 whole entry): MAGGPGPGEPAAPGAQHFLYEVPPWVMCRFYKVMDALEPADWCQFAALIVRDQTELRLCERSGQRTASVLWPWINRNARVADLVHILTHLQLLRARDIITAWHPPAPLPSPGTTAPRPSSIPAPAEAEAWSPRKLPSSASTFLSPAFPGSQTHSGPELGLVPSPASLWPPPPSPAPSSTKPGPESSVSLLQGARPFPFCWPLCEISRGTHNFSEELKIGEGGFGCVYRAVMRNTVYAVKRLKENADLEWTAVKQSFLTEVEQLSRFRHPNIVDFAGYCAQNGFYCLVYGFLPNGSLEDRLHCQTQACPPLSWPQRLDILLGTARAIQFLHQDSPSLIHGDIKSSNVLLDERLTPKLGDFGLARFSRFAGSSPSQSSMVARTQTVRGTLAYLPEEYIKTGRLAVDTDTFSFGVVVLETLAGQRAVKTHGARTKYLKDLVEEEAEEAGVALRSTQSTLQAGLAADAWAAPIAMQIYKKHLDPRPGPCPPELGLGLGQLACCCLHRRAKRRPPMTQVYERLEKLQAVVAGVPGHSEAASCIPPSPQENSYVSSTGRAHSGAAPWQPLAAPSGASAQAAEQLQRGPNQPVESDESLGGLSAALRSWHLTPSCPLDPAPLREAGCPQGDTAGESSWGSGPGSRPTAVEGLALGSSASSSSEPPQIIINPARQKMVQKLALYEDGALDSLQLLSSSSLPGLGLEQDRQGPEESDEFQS

Compound | IC50 (NF-κB; [1]) [nM] | IC50 (NF-κB; [2]) [nM] | IC50 (FLT3) [nM] | IC50 (IRAK4) [nM] | IC50 (IRAK1) [nM] | IC50 (MOLM14 D835Y cells; Homo sapiens, MOLM-14, 48 h) [nM] | IC50 (MOLM14 D835Y cells; 48 hours) [nM]
Oc1cc2ncc(-c3nc(N[C@@H]4CCCNC4)c(F)cc3F)n2nc1C1CC1 [Compound 75a, (R)-6-cyclopropyl-3-(3,5-difluoro-6-(piperidin-3-ylamino)pyridin-2-yl)imidazo[1,2-b]pyridazin-7-ol] | 1740 | 2270 | 0.8 | 34 | 473 | – | –
COc1cc2ncc(-c3nc(N[C@@H]4CCCNC4)c(F)cc3F)n2nc1C1CC(C)(C)C1 [Compound 7a, (R)-6-(6-(3,3-dimethylcyclobutyl)-7-methoxyimidazo[1,2-b]pyridazin-3-yl)-3,5-difluoro-N-(piperidin-3-yl)pyridin-2-amine] | 2560 | 2560 | < 0.5 | 13 | 22 | – | –
COc1cc2ncc(-c3ccc(C#N)c(N[C@@H]4CCCNC4)n3)n2nc1C1CC1 [Compound 28a, (R)-6-(6-cyclopropyl-7-methoxyimidazo[1,2-b]pyridazin-3-yl)-2-(piperidin-3-ylamino)nicotinonitrile] | 203 | 481 | < 0.5 | 13 | 836 | – | –
COc1cc2ncc(-c3nc(N[C@@H]4CCCNC4)c(F)cc3F)n2nc1C12CC(C1)C2 [Compound 65a, (R)-6-(6-(bicyclo[1.1.1]pentan-1-yl)-7-methoxyimidazo[1,2-b]pyridazin-3-yl)-3,5-difluoro-N-(piperidin-3-yl)pyridin-2-amine] | 312 | 410 | < 0.5 | 9 | 18 | – | –
COc1cc2ncc(-c3nc(N[C@H]4CNCC[C@@H]4F)c(F)cc3F)n2nc1C1CCO1 (stereo partly drawn) [Compound 74a, 3,5-difluoro-N-((3S,4S)-4-fluoropiperidin-3-yl)-6-(7-methoxy-6-(oxetan-2-yl)imidazo[1,2-b]pyridazin-3-yl)pyridin-2-amine] | 254 | 345 | < 0.5 | 3 | 59 | – | –
COc1cc2ncc(-c3ccc(F)c(N[C@H]4CNC[C@@H]4F)n3)n2nc1C(C)(C)O [Compound 5a, 2-(3-(5-fluoro-6-(((3S,4S)-4-fluoropyrrolidin-3-yl)amino)pyridin-2-yl)-7-methoxyimidazo[1,2-b]pyridazin-6-yl)propan-2-ol] | – | – | 7 | 70 | 2670 | 408 | –
COc1cc2ncc(-c3nc(N[C@@H]4CCCNC4)ccc3C)n2nc1C1CC1 [Compound 40a, (R)-6-(6-cyclopropyl-7-methoxyimidazo[1,2-b]pyridazin-3-yl)-5-methyl-N-(piperidin-3-yl)pyridin-2-amine] | – | – | < 0.5 | 18 | > 10000 | 129 | –
COc1cc2ncc(-c3nc(N[C@H]4CNCC[C@@H]4F)ccc3C)n2nc1C1CC1 [Compound 39a, 6-(6-cyclopropyl-7-methoxyimidazo[1,2-b]pyridazin-3-yl)-N-((3S,4S)-4-fluoropiperidin-3-yl)-5-methylpyridin-2-amine] | – | – | < 0.5 | 45 | 3360 | 129 | –
COc1cc2ncc(-c3nc(N[C@H]4CNC[C@@H]4F)c(F)cc3F)n2nc1C1CCC1 [Compound 13a, 6-(6-cyclobutyl-7-methoxyimidazo[1,2-b]pyridazin-3-yl)-3,5-difluoro-N-((3S,4S)-4-fluoropyrrolidin-3-yl)pyridin-2-amine] | – | – | < 0.5 | 1 | 6 | 58 | –
COc1cc2ncc(-c3ccc(F)c(N[C@@H]4CCCNC4)n3)n2nc1C1CC1 [Compound 49a, (R)-6-(6-cyclopropyl-7-methoxyimidazo[1,2-b]pyridazin-3-yl)-3-fluoro-N-(piperidin-3-yl)pyridin-2-amine] | – | – | < 0.5 | 3 | 449 | 51 | –
COc1cc2ncc(-c3ccc(F)c(N[C@@H]4CCCNC4)n3)n2nc1C(C)(C)O [Compound 6a, (R)-2-(3-(5-fluoro-6-(piperidin-3-ylamino)pyridin-2-yl)-7-methoxyimidazo[1,2-b]pyridazin-6-yl)propan-2-ol] | – | – | 9 | 558 | 2850 | 289 | –
COc1cc2ncc(-c3nc(N[C@H]4CNCC[C@@H]4F)c(F)cc3F)n2nc1C(C)(O)C(F)(F)F (single isomer, unassigned) [Compound 76a] | – | – | < 0.5 | 78 | 580 | – | 81
Fc1cc(F)c(-c2cnc3cc(OCC(F)F)cnn23)nc1N[C@@H]1CCCNC1 [Compound 83a, (R)-6-(7-(2,2-difluoroethoxy)imidazo[1,2-b]pyridazin-3-yl)-3,5-difluoro-N-(piperidin-3-yl)pyridin-2-amine] | – | – | 0.5 | 53 | 1750 | 91 | –
COc1cc2ncc(-c3ccc(C)c(N[C@H]4CNC[C@@H]4F)n3)n2nc1C1CC1 [Compound 42a, 6-(6-cyclopropyl-7-methoxyimidazo[1,2-b]pyridazin-3-yl)-N-((3S,4S)-4-fluoropyrrolidin-3-yl)-3-methylpyridin-2-amine] | – | – | 135 | 8430 | > 10000 | 7250 | –
COc1cc2ncc(-c3ccc(C)c(N[C@@H]4CCCNC4)n3)n2nc1C1CC1 [Compound 41a, (R)-6-(6-cyclopropyl-7-methoxyimidazo[1,2-b]pyridazin-3-yl)-3-methyl-N-(piperidin-3-yl)pyridin-2-amine] | – | – | 105 | > 10000 | > 10000 | 1620 | –
COc1cc2ncc(-c3nc(N[C@H]4CNCC[C@@H]4F)ccc3F)n2nc1C(C)(C)O [Compound 4a, 2-(3-(3-fluoro-6-(((3S,4S)-4-fluoropiperidin-3-yl)amino)pyridin-2-yl)-7-methoxyimidazo[1,2-b]pyridazin-6-yl)propan-2-ol] | – | – | < 0.5 | 27 | 221 | 29 | –
